Experimental data taken from patent publication US20240383845A1, “NAPHTHALENEDITHIOL AND DERIVATIVE THEREOF, AND PRODUCTION PROCESS AND USE FOR THE SAME” (SUGAI CHEMICAL INDUSTRY CO., LTD., priority 2021, published 2024).

Experiments:
[1] = Refractive index (abbe refractometer); type: physicochemical; settings: 25° C., 589 nm, value at 100% by mass by extrapolation
Method: The refractive index of each sample was measured using an abbe refractometer (“NAR-lT” manufactured by ATAGO CO., LTD.) at a temperature of 25° C. and a wavelength of 589 nm. Depending on the species of each sample, the refractive index was measured as follows.
For the after-mentioned 16NDSH, 15NDSH, 26NDSH and 27NDSH; 15DGNDSH; 15DHENDSH; 16DMNDSH and 15DMNDSH; and 16DCNDSH and 15DCNDSH, a sample was dissolved in 1,3-dimethyl-2-imidazolidinone (DMI) to prepare multiple solutions with different concentrations, and the refractive index of each solution was measured at a temperature of 25° C. and a wavelength of 589 nm. From the results of the refractive index at each concentration, the refractive index value at 100% by mass of the concentration was determined by extrapolation.
For the after-mentioned 16NDSHMA, 15NDSHMA, 26NDSHMA and 27NDSHMA; 16NDSHA and 15NDSHA; 15DANDSH; and 15DVNDSH, polymerization may occur during the mixing, and thus a sample was dissolved in a methoquinone/DMI solution (a solution containing 4000 ppm of methoquinone relative to the mass of DMI) to prepare multiple solutions with different concentrations. The refractive index of each solution was measured at a temperature of 25° C. and a wavelength of 589 nm. From the results of the refractive index at each concentration, the refractive index value at 100% by mass of the concentration was determined by extrapolation.
For the after-mentioned 16DANDSH; 16DVNDSH; 16DGNDSH; and 16DHENDSH, a sample was liquid for a while after preparation, and thus the refractive index was measured in the state of an undiluted solution. Further, thiol-ene-based resins (thiol-ene-based resins obtained from 16NDSH or 15NDSH and divinylbenzene) were measured in the same manner. […]

[2] = Dissolubility or compatibility (maximum dissolved concentration, HPLC); type: physicochemical; settings: 25° C.; for Dissolubility, MMA: methyl methacrylate; for Dissolubility, PGMEA: propylene glycol monomethyl ether acetate; for Dissolubility, DMF: N,N-dimethylformamide; for Dissolubility, THF: tetrahydrofuran
Method: In more detail, the sample was added to a predetermined amount of a solvent or a polymerizable component until the sample was no longer dissolved, and the sample content of the liquid layer (the solvent layer) of the resulting mixture was analyzed using an HPLC (“SPD-20A” manufactured by SHIMADZU CORPORATION), and thus the concentration (the maximum dissolved concentration) of the sample in the liquid layer (the solvent layer) was determined as a solubility.

[3] = DMI solutions of different concentrations

Row | Refractive index [1, 3] | Dissolubility, Ethyl acetate [2] | Dissolubility, MMA [2] [% by mass] | Dissolubility, PGMEA [2] [% by mass] | Dissolubility, Styrene [2] [% by mass] | Dissolubility, Toluene [2] | melting point [°C] | Refractive index ([1]; methoquinone/DMI solutions) | Dissolubility, DMF [2] [% by mass] | Dissolubility, Methanol [2] [% by mass] | Dissolubility, THF [2] [% by mass] | Compound
1 | 1.690 | Freely blended (>90) % by mass | 62.3 | 42.3 | 68.7 | Freely blended (>90) % by mass | 52 to 53 | – | – | – | – | CSc1ccc2c(SC)cccc2c1 [Example 16DMNDSH, 1,6-bis(methylthio)naphthalene]
2 | – | 56.3 % by mass | 55.7 | 44.3 | 59.4 | 58.4 % by mass | 64 to 66 | 1.667 | – | – | – | C=CC(=O)Sc1ccc2c(SC(=O)C=C)cccc2c1 [Example 16NDSHA, 1,6-bis(acryloylthio)naphthalene]
3 | 1.718 | 0.65 % by mass | – | 0.73 | – | 0.64 % by mass | 196 to 197 | – | 3.54 | 0.11 | 4.03 | Sc1ccc2cc(S)ccc2c1 [Example 26NDSH, 2,6-naphthalenedithiol]
4 | 1.721 | 0.90 % by mass | – | 1.05 | – | 0.76 % by mass | 186 to 188 | – | 7.75 | 0.16 | 5.24 | Sc1ccc2ccc(S)cc2c1 [Example 27NDSH, 2,7-naphthalenedithiol]
